Test system: LDL
Conditions: 10-fold molar excess of choline-phosphate, no SMase
Description: Next it was determined which of the three consequences of SMase enzymatic activity, namely, generation of choline-phosphate, generation of ceramide, and depletion of SM, is responsible for LDL aggregation. […] Incubating LDL with a 10-fold molar excess of choline-phosphate was performed.

Structure (SMILES): C[N+](C)(C)CCOP(=O)(O)O [choline-phosphate]
- turbidity of LDL: failed to increase the turbidity of LDL

Source: patent US6613322B2, “Method for treating a subject suffering from conditions associated with an extracellular zinc sphingomyelinase” (The Trustees of Columbia University in the City of New York, priority 1997, dated 2003)
